# Assay results reported in ChEMBL document CHEMBL1201862, “PubChem BioAssay data set” (2004).
# Calls of active or inactive are those of the source.
# Columns and labels:
# [1] = molecular target: Beta-galactosidase (Escherichia coli, UniProt Q8VNN2); test: Dose response counterscreen for EBI2 assay utilizing the enzyme, b-galactosidase.; type: functional
# [2] = molecular target: T1, Trace amine-associated receptor 1 (Homo sapiens, UniProt Q96RJ0); test: Counterscreen for agonists of the human trace amine associated receptor 1 (hTAAR1): Fluorescence-based cell-based high throughput dose response assay to identify hTAAR1 agonist that also desensitize TAAR1 receptor response.; type: functional
# T1 sequence (Q96RJ0 whole entry): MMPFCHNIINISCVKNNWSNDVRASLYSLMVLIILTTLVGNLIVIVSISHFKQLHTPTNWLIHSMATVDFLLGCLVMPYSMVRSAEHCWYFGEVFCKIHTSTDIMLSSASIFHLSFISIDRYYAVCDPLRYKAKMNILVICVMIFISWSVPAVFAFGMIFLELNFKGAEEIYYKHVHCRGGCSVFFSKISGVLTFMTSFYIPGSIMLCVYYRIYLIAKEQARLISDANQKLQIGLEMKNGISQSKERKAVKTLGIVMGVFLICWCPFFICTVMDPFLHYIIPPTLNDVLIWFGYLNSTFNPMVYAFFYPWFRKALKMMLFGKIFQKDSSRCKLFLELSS
# [3] = cells; type: functional, cell-based
# [4] = cells; type: functional, cell-based; remark: listed apart in the source
# [5] = molecular target: T1, Trace amine-associated receptor 1; test: Fluorescence-based cell-based high throughput dose response assay to identify agonists of the human trace amine associated receptor 1 (TAAR1).; type: functional
# [6] = THP-1 cell cytotoxicity, dose response, cytotoxicity control for non-replicating M. tuberculosis project (AID 489025); type: functional
# [7] = C. albicans growth with fluconazole, confirmation, fluorescence, retest (AID 2467); type: functional, cell-based
# [8] = NIH-3T3 fibroblast cytotoxicity, dose response, cytotoxicity control, cell-based, fluorescence, Alamar Blue, secondary assay (AID 2327); type: functional;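 further: NIH-3T3 mouse fibroblasts cultured with fluconazole at 8 µg/mL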
# [9] = cells; type: functional
# [10] = molecular target: Albumin (Bos taurus, UniProt P02769); test: Counterscreen for inhibitors of T-cell receptor (TCR)-CD3 interaction: Fluorescence-based biochemical high throughput dose response assay to identify inhibitors of T-cell receptor (TCR)-CD3 interaction using a TAMRA-labeled BSA probe.; type: functional
# [11] = microbe, parasite or virus in culture; type: functional; settings: Mycobacterium tuberculosis
# [12] = Vero E6 cell cytotoxicity, dose response, cytotoxicity control for non-replicating M. tuberculosis project, secondary assay (AID 492998); type: functional, VeroE6; settings: Vero C1008
# [13] = molecular target: Luciferin 4-monooxygenase (Photinus pyralis, UniProt P08659); test: Counter Screen for Luciferase-based Assay Positives. [Related pubchem assays: 620, 618, 411 ]
# [14] = LGR2 antagonists, dose response, cell-based, HEK293, CRE-luciferase reporter, cherry pick, set 2 (AID 743343); type: functional;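 further: transfected cells were stimulated with diluted bursicon conditioned medium after compound addition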
# [15] = HEK293 cell cytotoxicity, dose response, cytotoxicity control, plate reader, cherry-picked samples (AID 743446); type: functional, cell-based
# [16] = A549 cell cytotoxicity, dose response, cytotoxicity control, plate reader, cherry-pick, antagonist series (AID 743412); type: functional, cell-based
# [17] = HepG2 cell cytotoxicity, dose response, cytotoxicity control, plate reader, cherry-pick, antagonist series (AID 743416); type: functional, cell-based
# [18] = test system: HT-1080; test: cytotoxicity in HT1080 fibrosarcoma cells, cell-based, fluorescence readout (AID 620); type: functional; settings: Homo sapiens
# [19] = MC4R antagonists, dose response, counter-screen for LGR2 antagonist project, cell-based, plate reader, cherry pick (AID 743444); type: functional;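 further: transfected HEK 293 cells stimulated with alpha-MSH peptide; potency of inhibitors of the alpha-MSH evoked signal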
# [20] = test system: HEK293; test: inhibitors of LMP1-driven NF-kB reporter, dose response, cell-based, HEK293, luciferase, cherry-pick (AID 588343); type: functional, Homo sapiens; settings: Homo sapiens, HEK293
# [21] = molecular target: T2, Methionyl-tRNA synthetase, putative (Trypanosoma brucei brucei, UniProt Q38C91); type: functional, Trypanosoma brucei brucei strain 927/4 GUTat10.1
# T2 sequence (Q38C91 whole entry): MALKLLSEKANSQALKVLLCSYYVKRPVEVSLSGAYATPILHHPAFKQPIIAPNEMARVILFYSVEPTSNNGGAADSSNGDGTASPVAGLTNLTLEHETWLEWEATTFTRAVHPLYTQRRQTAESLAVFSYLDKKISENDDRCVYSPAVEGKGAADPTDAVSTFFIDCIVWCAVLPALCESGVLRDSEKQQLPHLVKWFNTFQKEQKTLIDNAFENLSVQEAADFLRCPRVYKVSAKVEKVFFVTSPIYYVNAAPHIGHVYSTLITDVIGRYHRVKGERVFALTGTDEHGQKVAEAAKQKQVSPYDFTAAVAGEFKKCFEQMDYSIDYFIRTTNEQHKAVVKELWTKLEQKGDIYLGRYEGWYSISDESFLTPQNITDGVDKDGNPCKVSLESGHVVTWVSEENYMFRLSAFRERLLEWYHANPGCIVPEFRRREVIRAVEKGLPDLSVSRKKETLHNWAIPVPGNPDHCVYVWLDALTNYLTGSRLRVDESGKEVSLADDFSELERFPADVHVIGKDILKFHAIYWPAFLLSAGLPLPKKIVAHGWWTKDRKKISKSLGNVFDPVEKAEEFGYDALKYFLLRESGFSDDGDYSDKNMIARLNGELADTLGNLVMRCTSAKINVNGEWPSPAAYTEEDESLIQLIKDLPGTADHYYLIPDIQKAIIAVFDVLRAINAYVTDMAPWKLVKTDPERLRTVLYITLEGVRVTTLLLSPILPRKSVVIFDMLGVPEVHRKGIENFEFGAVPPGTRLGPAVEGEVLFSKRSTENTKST
# [22] = molecular target: T3, Heat shock factor protein 1 (Mus musculus, UniProt P38532); test: HSF1 potentiators in luciferase reporter cells, confirmation, cell-based, NIH3T3, luminescence, dose retest (AID 435004); type: functional;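 further: stress induced by proteasome inhibitor MG132 added 30 min after compound; luciferase reporter driven by HSF1 response element in NIH3T3 cells; actives raise luminescence as potentiators of the MG132 stress response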
# T3 sequence (P38532 whole entry): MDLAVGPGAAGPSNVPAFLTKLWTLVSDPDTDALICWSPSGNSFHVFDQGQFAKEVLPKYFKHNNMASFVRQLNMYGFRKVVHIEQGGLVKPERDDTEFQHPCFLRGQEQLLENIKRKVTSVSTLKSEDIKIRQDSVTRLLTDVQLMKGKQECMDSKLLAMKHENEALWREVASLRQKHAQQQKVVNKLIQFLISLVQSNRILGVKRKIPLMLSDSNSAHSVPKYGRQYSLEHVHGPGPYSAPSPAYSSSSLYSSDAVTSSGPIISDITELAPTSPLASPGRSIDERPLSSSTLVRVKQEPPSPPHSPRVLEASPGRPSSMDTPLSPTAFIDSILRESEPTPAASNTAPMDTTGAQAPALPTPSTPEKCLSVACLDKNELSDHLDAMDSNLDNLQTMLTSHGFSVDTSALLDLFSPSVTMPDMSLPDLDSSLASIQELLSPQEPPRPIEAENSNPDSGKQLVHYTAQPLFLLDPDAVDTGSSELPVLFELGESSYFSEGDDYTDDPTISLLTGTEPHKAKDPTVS
# [23] = molecular target: T2, Methionyl-tRNA synthetase, putative; type: functional, Trypanosoma brucei brucei strain 927/4 GUTat10.1; remark: listed apart in the source
# [24] = Counterscreen for inhibitors of Trypanosoma brucei methionyl tRNA synthetase (MetRS): Luminescence-based cell-based high throughput dose response assay to identify compounds that are cytotoxic to Jurkat human T lymphocyte cells.; type: functional
# [25] = inhibitors of clade B AD8 Env fusion, dose response, cell-based, cherry-pick (AID 652062); type: functional;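 further: luciferase signal from cell-cell fusion driven by HIV-1 clade B AD8 Env; potency is for inhibitors of fusion seen as a drop in luminescence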
# [26] = inhibitors of HIV Env-driven cell fusion, dose response, cherry-pick (AID 652057); type: functional, cell-based
# [27] = off-target signal loss in HeLa-CEM21 co-culture – HeLa F-luc CTL cells, cherry-picked, counter-screen for HIV-1 Env fusion inhibitor project, dose response (AID 652040); type: functional, cell-based;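 further: potency for signal decrease marking cytotoxic or nonspecific inhibition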
# [28] = ZM109 Env clade C HIV-1 fusion inhibitors, dose response, HeLa effector, CEM target cells, luciferase, cherry-pick (AID 652058); type: functional, cell-based
# [29] = molecular target: T4, Caspase-6 (Homo sapiens, UniProt P55212); test: human caspase-6 inhibitors, dose response, biochemical, VEID-R110 fluorescence, cherry-pick (AID 720632)
# T4 sequence (P55212 whole entry): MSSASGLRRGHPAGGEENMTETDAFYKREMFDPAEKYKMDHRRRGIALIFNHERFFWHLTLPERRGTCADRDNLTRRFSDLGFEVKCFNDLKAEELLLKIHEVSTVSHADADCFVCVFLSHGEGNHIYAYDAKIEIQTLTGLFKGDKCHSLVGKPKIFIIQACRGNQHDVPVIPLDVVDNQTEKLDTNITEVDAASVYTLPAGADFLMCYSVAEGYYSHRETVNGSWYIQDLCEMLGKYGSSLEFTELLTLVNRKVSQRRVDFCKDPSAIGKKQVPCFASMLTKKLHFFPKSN
# [30] = test system: Vero; test: cells; type: functional; settings: Chlorocebus sabaeus
# [31] = HEp-2 cell cytotoxicity, dose response, cytotoxicity control for RSV inhibitor project, HTS (AID 2410); type: functional; settings: human respiratory syncytial virus
# Sequence of Beta-galactosidase (Q8VNN2 whole entry): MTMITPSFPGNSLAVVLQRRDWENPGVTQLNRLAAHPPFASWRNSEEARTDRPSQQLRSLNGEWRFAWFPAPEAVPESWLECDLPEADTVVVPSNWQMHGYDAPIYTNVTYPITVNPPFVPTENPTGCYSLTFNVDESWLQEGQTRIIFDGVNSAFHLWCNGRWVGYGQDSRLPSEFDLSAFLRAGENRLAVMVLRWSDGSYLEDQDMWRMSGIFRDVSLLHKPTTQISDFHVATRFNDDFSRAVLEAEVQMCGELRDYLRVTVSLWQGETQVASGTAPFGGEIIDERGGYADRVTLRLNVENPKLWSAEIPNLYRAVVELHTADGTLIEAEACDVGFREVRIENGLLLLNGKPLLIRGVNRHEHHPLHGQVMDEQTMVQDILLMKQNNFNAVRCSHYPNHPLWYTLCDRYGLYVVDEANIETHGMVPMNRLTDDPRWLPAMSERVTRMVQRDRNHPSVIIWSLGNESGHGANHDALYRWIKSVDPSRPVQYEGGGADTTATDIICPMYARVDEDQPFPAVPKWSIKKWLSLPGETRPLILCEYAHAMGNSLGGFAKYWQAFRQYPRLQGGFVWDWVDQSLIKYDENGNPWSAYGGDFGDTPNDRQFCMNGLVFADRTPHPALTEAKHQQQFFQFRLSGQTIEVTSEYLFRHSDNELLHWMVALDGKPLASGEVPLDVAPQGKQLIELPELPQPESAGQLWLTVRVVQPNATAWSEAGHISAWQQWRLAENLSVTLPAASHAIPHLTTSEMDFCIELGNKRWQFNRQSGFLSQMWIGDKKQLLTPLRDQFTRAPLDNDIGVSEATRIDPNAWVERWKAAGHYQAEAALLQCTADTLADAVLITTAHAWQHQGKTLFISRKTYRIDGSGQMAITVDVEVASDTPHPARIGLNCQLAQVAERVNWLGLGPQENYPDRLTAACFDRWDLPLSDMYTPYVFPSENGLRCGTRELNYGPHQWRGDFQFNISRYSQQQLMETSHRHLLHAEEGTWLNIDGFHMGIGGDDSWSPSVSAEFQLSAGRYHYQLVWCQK
# Sequence of Luciferin 4-monooxygenase (P08659 whole entry): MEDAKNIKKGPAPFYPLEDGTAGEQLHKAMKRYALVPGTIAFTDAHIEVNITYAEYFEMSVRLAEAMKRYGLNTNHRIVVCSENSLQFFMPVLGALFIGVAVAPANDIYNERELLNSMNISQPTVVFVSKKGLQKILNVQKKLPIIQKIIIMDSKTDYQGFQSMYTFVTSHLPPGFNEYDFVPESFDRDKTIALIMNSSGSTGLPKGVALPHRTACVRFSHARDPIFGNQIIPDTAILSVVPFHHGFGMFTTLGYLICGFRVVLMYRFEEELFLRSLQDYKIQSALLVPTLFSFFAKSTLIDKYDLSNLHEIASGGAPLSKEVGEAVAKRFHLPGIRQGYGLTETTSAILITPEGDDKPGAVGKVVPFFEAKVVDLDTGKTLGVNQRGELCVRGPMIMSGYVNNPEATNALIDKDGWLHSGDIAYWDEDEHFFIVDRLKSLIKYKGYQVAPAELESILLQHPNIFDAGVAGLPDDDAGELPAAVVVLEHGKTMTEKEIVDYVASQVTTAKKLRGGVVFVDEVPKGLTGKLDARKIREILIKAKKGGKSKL
# Sequence of Albumin (P02769 whole entry): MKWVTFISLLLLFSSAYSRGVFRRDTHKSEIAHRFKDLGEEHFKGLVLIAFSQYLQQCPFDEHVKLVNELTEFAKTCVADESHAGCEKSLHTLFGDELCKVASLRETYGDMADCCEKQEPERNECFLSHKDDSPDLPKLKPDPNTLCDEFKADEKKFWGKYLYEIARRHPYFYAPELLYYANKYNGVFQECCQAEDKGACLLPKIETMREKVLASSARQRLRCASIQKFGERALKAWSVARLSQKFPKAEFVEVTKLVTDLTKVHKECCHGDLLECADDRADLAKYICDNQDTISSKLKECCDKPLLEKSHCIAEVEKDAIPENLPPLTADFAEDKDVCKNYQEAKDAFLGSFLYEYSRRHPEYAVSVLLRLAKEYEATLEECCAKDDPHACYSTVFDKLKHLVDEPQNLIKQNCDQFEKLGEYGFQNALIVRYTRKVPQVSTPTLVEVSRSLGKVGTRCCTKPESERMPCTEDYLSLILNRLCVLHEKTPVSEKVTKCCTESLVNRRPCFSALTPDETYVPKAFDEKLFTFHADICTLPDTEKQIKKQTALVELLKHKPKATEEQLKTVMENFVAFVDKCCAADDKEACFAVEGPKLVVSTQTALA
structure (smiles),measurement,setting,value
COc1ccc(-n2cc(-c3ccc(Cl)cc3)nc2S)cc1,IC50,[1],> 80 µM (inactive)
COc1cc(/C=C(\C#N)C(N)=O)ccc1OS(=O)(=O)c1ccc(C)cc1,IC50,[1],> 80 µM (inactive)
Cc1ccc(C)c(N2CN(CCC3=CCCCC3)CN=C2S)c1,IC50,[2],7.73 µM (active)
same,IC50,[3],> 29.9 µM (inactive)
same,EC50,[4],> 29.9 µM (inactive)
same,EC50,[5],4.03 µM (active)
Cc1cc2oc3ccc(NCCCn4ccnc4)cc3c(=O)c2cc1C,CC50,[6],26.9 µM (active)
same,EC50,[7],1.82 µM (active)
same,EC50,[8],24.7 µM (active)
same,IC50,[9],27.9 µM (active)
same,IC50,[10],> 94.1 µM (inactive)
same,CC50,[11],12.4 µM (active)
same,CC50,[12],14.6 µM (active)
Cc1cc2c(cc1S(=O)(=O)CCC(=O)NCCc1ccccc1)OCC(=O)N2,IC50,[2],5.78 µM (active)
same,IC50,[3],> 29.9 µM (inactive)
same,EC50,[4],> 29.9 µM (inactive)
same,EC50,[5],3.59 µM (active)
c1ccc(-c2nc(-c3ccccn3)no2)cc1,EC50,[13],0.35 µM (active)
same,AC50,[14],2.65 µM (active)
same,AC50,[15],7.31 µM (active)
same,AC50,[16],6.2 µM (active)
same,AC50,[17],9.19 µM (active)
same,EC50,[18],> 50 µM (not active)
same,AC50,[19],2.47 µM (active)
same,AC50,[20],1.68 µM (active)
Cn1c(CCCOc2ccc(Cl)cc2Cl)nnc1SCC(=O)Nc1cccc(F)c1,IC50,[21],119 µM (inactive)
same,EC50,[22],181 µM (active)
same,IC50,[23],52.2 µM (inactive)
same,IC50,[24],28.3 µM (inactive)
O=C(CCCCn1c(=O)[nH]c2ccccc2c1=O)N1CCN(c2cccc(C(F)(F)F)c2)CC1,AC50,[25],8.93 µM (active)
same,AC50,[26],11.1 µM (active)
same,AC50,[27],16 µM (active)
same,AC50,[28],3.8 µM (active)
O=[N+]([O-])c1ccc(/C=[N+](\[O-])[C@@H]2CCCC[C@@H]2/[N+]([O-])=C/c2ccc([N+](=O)[O-])o2)o1,EC50,[22],8.46 µM (active)
same,AC50,[29],41.1 µM (active)
same,CC50,[30],14.8 µM (active)
CCC(=O)Nc1cccc(-c2ccc(N3CCC(C)CC3)nn2)c1,AC50,[14],6.78 µM (active)
same,CC50,[31],26.9 µM (active)
same,AC50,[15],35.7 µM (active)
same,AC50,[16],> 52 µM (inactive)
same,AC50,[17],> 52 µM (inactive)
same,AC50,[19],10.3 µM (active)
